Experiments:
[1] = system: A375 (melanoma) cancer cells; test: In vitro cytotoxic activity MTT assay, A375; type: cell-based; settings: Homo sapiens, A-375, exposed for 96 hours, 50% inhibition of cell proliferation, read-out: Cytotoxicity IC50, A375 (melanoma)
Method: (§1) Compounds 1-12 were screened for their in vitro cytotoxic activity utilizing a 3-(4,5-dimethyl-thiazol-2-yl)-2,5-diphenyltetrazolium bromide (MTT) assay against selected cancer human cell lines consisting of PC3 (prostate), HCT116 (colon), A375 (melanoma), H1299 (lung), MIAPaCa-2 (pancreas), HL60 (leukemia), MCF7 (breast), MDA-MB-231 (breast) (T. Mosmann, J. Immunol. Meth., 1983, 65, 55-63). The cells were cultured at 37° C. in RMPI1640 medium supplemented with 10% fetal bovine serum, 50 IU/mL penicillin, and 50 μg/mL streptomycin in a 5% CO2 incubator. All cells were sub-cultured 3 times/week by trypsinisation. Viable cells were seeded and allowed to adhere for 12 h before a test drug was added in 96-well plates at an initial density of 1.0×10^5 cells/mL. Tumour cell lines were separately exposed to various concentrations of the tested compounds followed by incubation at a temperature of 37° C. during 96 h inside a medium of fresh RMPI 1640. Cells were subsequently incubated at 37° C. using MTT at 0.5 mg/mL during 4 h. After removal of supernatant, formazan crystals were dissolved in isopropanol and the optical density was measured at 570 nm. CX-4945 was used as a positive control.

[2] = molecular target: T1, recombinant human CK2 (RRββ-holoenzyme) (Homo sapiens, UniProt P68400); test: CK2 Kinase Assay (33P-ATP, filter plate); type: biochemical; settings: final ATP concentration 15 μM, 10 min at 30° C, eight concentrations; read-out: protein kinase CK2 IC50
T1 construct: purchased Millipore
T1 sequence (P68400 whole entry): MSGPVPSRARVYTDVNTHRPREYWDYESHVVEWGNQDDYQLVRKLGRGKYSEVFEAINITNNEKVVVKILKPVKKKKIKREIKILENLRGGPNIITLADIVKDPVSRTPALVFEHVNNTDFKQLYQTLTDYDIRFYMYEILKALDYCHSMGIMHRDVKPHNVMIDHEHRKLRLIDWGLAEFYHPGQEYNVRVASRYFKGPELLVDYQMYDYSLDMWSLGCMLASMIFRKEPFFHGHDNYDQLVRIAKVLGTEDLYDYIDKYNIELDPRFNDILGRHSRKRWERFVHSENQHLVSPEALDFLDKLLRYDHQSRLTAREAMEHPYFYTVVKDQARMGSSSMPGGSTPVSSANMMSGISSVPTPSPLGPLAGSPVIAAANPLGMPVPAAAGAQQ
T1 sequence (P67870 whole entry partner): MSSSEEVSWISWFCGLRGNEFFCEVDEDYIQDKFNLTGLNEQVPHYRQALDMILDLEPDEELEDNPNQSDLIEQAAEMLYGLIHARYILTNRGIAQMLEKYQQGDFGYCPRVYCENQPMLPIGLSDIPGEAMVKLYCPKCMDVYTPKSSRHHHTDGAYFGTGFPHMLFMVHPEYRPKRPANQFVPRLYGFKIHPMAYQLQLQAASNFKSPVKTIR
Method: CK2 Kinase Assay was conducted using the protocol as described in Pierre F. et al; J. Med. Chem. 2011, 54, 635-654. The tested compounds in aqueous solution were added at a volume of 10 μL to a reaction mixture comprising 10 μL of assay dilution buffer (ADB; 20 mM MOPS, pH 7.2, 25 mM β-glycerol phosphate, 5 mM EGTA, 1 mM sodium orthovanadate, and 1 mM dithiothreitol), 10 μL of substrate peptide (RRRDDDSDDD, dissolved in ADB at a concentration of 1 mM), 10 μL of recombinant human CK2 (RRββ-holoenzyme, 25 ng dissolved in ADB; Millipore). Reactions were initiated by the addition of 10 μL of ATP solution (90% 75 mM MgCl2, 75 μM ATP (final ATP concentration: 15 μM) dissolved in ADB; 10% [γ-33P] ATP (stock 1 mCi/100 μL; 3000 Ci/mmol (Perkin-Elmer) and maintained for 10 min at 30° C. The reactions were quenched with 100 μL of 0.75% phosphoric acid and then transferred to and filtered through a phosphor cellulose filter plate (Millipore). After washing each well five times with 0.75% phosphoric acid, the plate was dried under vacuum for 5 min and, following the addition of 15 μL of scintillation fluid to each well, the residual radioactivity was measured using a Wallac […] counter. The IC50 values were derived from eight concentrations of test inhibitors.

[3] = system: MCF7 (breast) cancer cells; test: In vitro cytotoxic activity MTT assay, MCF7; type: cell-based; settings: Homo sapiens, exposed for 96 hours, 50% inhibition of cell proliferation, read-out: Cytotoxicity IC50, MCF7 (breast)
Method: as §1

[4] = system: PC3 (prostate) cancer cells; test: In vitro cytotoxic activity MTT assay, PC3; type: cell-based; settings: Homo sapiens, PC-3, exposed for 96 hours, 50% inhibition of cell proliferation, read-out: Cytotoxicity IC50, PC3 (prostate)
Method: as §1

[5] = system: MDA-MB-231 (breast) cancer cells; test: In vitro cytotoxic activity MTT assay, MDA-MB-231; type: cell-based; settings: Homo sapiens; MDA-MB-231 cells, exposed for 96 hours, 50% inhibition of cell proliferation; read-out: Cytotoxicity IC50, MDA-MB-231 (breast)
Method: as §1

[6] = system: MIAPaCa-2 (pancreas) cancer cells; test: In vitro cytotoxic activity MTT assay, MIAPaCa-2; type: cell-based; settings: Homo sapiens, MIA PaCa-2; MIAPaCa-2 cells, exposed for 96 hours, 50% inhibition of cell proliferation; read-out: Cytotoxicity IC50, MIAPaCa-2 (pancreas)
Method: as §1

[7] = system: H1299 (lung) cancer cells; test: In vitro cytotoxic activity MTT assay, H1299; type: cell-based; settings: Homo sapiens, NCI-H1299, exposed for 96 hours, 50% inhibition of cell proliferation, read-out: Cytotoxicity IC50, H1299 (lung)
Method: as §1

[8] = system: HL60 (leukemia) cancer cells; test: In vitro cytotoxic activity MTT assay, HL60; type: cell-based; settings: Homo sapiens, HL-60, exposed for 96 hours, 50% inhibition of cell proliferation, read-out: Cytotoxicity IC50, HL60 (leukemia)
Method: as §1

[9] = system: HCT116 (colon) cancer cells; test: In vitro cytotoxic activity MTT assay, HCT116; type: cell-based; settings: Homo sapiens, HCT-116, exposed for 96 hours, 50% inhibition of cell proliferation, read-out: Cytotoxicity IC50, HCT116 (colon)
Method: as §1

Clc1cccc(Nc2nc3cnccc3c3nc4cnccn4c23)c1 [Compound 1, N-(3-chlorophenyl)pyrazino[2′,1′:2,3]imidazo[4,5-c][1,7]naphthyridin-6-amine]
IC50 [1]: 3100 nM | IC50 [2]: 18 nM | IC50 [3]: 5600 nM | IC50 [4]: 1100 nM | IC50 [5]: 4800 nM | IC50 [6]: 1200 nM | IC50 [7]: 1900 nM | IC50 [8]: 3300 nM | IC50 [9]: 1400 nM
